≈ marks a conversion by molar mass, not a printed value. Where two headings read alike, the source gives them in different places.
Key:
[1] = system: ethanol ulcer in the gland gastric region; assay: Ethanol ulcer; assay type: in vivo; conditions: rats fasted 24 hours, drug oral, 99.5% ethanol 1 ml/rat after one hour, size of ulcer one hour later; for Suppression: dose not given
Procedure: Ethanol Ulcer Rats were fasted for 24 hours and orally administered with a drug. After one hour, 99.5% ethanol (1 ml/rat) was fed through oral administration. After one hour of ethanol administration, the abdomens of the rats were dissected and the size of ulcer in the gland gastric region was measured for each rat.

[2] = system: HCl-ethanol ulcer in the gland gastric region; assay: HCl-ethanol ulcer; assay type: in vivo, Rats; conditions: rats fasted 24 hours, drug oral, 60% ethanol containing 0.15 N hydrochloric acid 1 ml/rat after one hour, size of ulcer one hour later; dose not given
Procedure: HCl-ethanol Ulcer Rats were fasted for 24 hours and orally administered with a drug. After one hour, 60% ethanol containing 0.15 N hydrochloric acid (1 ml/rat) was perorally administered to each rat. One hour after ethanol administration, the size of ulcer in the gland gastric region was measured for evaluation of anti-ulcer effects of the drug.

Helicobacter pylori = assay: Anti-Helicobacter-pylori action (agar plate dilution MIC); assay type: cell-based; conditions: clinically isolated 10 bacterial strains, agar plate dilution method
Procedure: Anti-Helicobacter-pylori Action
Using clinically isolated 10 bacterial strains, the minimum inhibitory concentration (MIC) was measured according to the agar plate dilution method.

rat red blood cell = assay: Hemolytic action; assay type: cell-based; conditions: 10% rat red blood cell stock, 1% DMSO containing saline, 30 minutes at 37° C., absorbance 540 nm
Procedure: Hemolytic Action […] After incubation for 30 minutes at, 37° C., the mixture was centrifugally separated and the supernatant was obtained. The absorbance (540 nm) of the supernatant was measured. The hemolysis ratio was calculated.

H/K-ATPase = H/K-ATPase (Oryctolagus cuniculus, UniProt P27112); assay: H/K-ATPase inhibition; assay type: biochemical; conditions: pH 7.4, H/K-ATPase from rabbit gastric mucous membrane
H/K-ATPase, sequence (P27112 whole entry): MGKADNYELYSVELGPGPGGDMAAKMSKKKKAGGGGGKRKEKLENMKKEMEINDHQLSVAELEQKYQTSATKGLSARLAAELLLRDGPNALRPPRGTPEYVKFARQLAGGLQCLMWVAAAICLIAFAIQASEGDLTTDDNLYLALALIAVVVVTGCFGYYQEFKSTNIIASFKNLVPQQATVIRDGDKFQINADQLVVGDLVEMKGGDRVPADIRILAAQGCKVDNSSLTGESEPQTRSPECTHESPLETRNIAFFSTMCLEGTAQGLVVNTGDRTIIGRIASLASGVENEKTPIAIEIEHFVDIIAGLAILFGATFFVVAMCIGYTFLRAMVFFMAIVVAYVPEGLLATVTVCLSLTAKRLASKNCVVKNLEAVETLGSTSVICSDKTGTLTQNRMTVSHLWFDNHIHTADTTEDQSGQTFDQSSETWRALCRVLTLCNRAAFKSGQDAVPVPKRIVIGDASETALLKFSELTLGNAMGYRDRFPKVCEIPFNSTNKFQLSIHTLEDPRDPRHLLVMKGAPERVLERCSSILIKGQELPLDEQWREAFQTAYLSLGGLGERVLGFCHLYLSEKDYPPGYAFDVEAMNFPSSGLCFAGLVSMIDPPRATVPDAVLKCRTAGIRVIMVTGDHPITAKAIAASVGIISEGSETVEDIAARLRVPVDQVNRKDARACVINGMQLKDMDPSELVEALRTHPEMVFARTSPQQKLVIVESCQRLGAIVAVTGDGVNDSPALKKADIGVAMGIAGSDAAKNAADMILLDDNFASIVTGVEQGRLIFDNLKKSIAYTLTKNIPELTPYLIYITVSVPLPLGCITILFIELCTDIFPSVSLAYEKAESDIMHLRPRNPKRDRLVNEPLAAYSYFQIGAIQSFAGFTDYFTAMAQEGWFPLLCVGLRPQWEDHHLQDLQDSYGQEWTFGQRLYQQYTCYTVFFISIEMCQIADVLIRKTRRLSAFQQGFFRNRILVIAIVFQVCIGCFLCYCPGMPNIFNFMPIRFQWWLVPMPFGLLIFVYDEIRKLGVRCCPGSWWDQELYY
H/K-ATPase, sequence (P18597 whole entry partner): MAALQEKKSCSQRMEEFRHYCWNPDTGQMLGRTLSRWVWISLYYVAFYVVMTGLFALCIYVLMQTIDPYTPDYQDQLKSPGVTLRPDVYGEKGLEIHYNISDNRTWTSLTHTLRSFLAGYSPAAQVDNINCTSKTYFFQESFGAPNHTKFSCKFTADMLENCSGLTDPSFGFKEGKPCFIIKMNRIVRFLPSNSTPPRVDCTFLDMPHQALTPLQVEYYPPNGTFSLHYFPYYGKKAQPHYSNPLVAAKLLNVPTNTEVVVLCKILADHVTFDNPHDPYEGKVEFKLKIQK
Procedure: H/K-ATPase Inhibition The inhibitory effect was measured under pH 7.4, by using H/K-ATPase isolated and purified from the rabbit gastric mucous membrane.

[3] = Helicobacter pylori, read-out: MIC

| SMILES | Suppression [2] [%] | HC50 (rat red blood cell) [µg/mL] | IC50 (H/K-ATPase) [µM] | also measured |
| --- | --- | --- | --- | --- |
| CN(C)CCN(c1ccccc1NCCOc1ccc(Cl)cc1)S(=O)(=O)c1ccc(Cl)cc1.CN(C)CCN(c1ccccc1NCCOc1ccc(Cl)cc1)S(=O)(=O)c1ccc(Cl)cc1.O=C(O)C(O)C(O)C(=O)O [Example 3, N-(4-Chlorobenzenesulfonyl)-N-(2-dimethylaminoethyl)-N′-[2-(4-chlorophenoxy)ethyl]-o-phenylenediamine ½ Tartaric Acid Salt] | 91 | 72.3 |  | ED50 [1]: 14 mg/kg; Suppression [1]: 88%; MIC (Helicobacter pylori): 0.78 to 3.13 µg/mL |
| NCCOCCN(c1ccccc1NCCOc1ccc(Cl)cc1)S(=O)(=O)c1ccc(Cl)cc1.O=C(O)C(O)C(O)C(=O)O [Example 4, N-[2-(2-Aminoethoxy)ethyl]-N-(4-chlorobenzenesulfonyl)-N′-[2-(4-chlorophenoxy)ethyl]-o-phenylenediamine Tartaric Acid Salt] |  |  | 7.4 | Suppression [1]: 85%; ED50 ([1]; read-out: ED50): 5.3 mg/kg; MIC (Helicobacter pylori; [3]): 25 to 50 µg/mL |
| CS(=O)(=O)N(CCOCCN)c1ccccc1NCCOc1ccc(Cl)cc1 [Example 22, N-[2-(2-Amino)ethoxyethyl]-N-(methanesulfonyl)-N′-[2-(4-chloro)phenoxyethyl]-o-phenylenediamine] |  | 55.7 | 190 |  |
| CCS(=O)(=O)N(CCOCCN)c1ccccc1NCCOc1ccc(Cl)cc1 [Example 23, N-[2-(2-Amino)ethoxyethyl]-N-(1-ethanesulfonyl)-N′-[2-(4-chlorophenoxy)ethyl]-o-phenylenediamine] |  |  | 230 | Suppression [1]: 98% |
| CCCS(=O)(=O)N(CCOCCN)c1ccccc1NCCOc1ccc(Cl)cc1 [Example 24, N-[2-(2-Amino)ethoxyethyl]-N-(1-propanesulfonyl)-N′-[2-(4-chlorophenoxy)ethyl]-o-phenylenediamine] |  | 99.6 | 130 |  |
| CCCCCS(=O)(=O)N(CCOCCN)c1ccccc1NCCOc1ccc(Cl)cc1 [Example 27, N-[2-(2-Amino)ethoxyethyl]-N-(1-pentanesulfonyl)-N′-[2-(4-chlorophenoxy)ethyl]-o-phenylenediamine] |  |  | 38 |  |
| CCCCCCS(=O)(=O)N(CCOCCN)c1ccccc1NCCOc1ccc(Cl)cc1 [Example 28, N-[2-(2-Amino)ethoxyethyl]-N-(1-hexanesulfonyl)-N′-[2-(4-chlorophenoxy)ethyl]-o-phenylenediamine] |  |  | 79 | Suppression [1]: 100% |
| CCCCCCCS(=O)(=O)N(CCOCCN)c1ccccc1NCCOc1ccc(Cl)cc1 [Example 29, N-[2-(2-Amino)ethoxyethyl]-N-(1-heptanesulfonyl)-N′-[2-(4-chlorophenoxy)ethyl]-o-phenylenediamine] |  |  | 5 |  |
| CCS(=O)(=O)N(CCN(C)C)c1ccccc1NCCOc1ccc(Cl)cc1.Cl [Example 30, N-[2-(Dimethylamino)ethyl]-N-ethanesulfonyl-N′-[2-(4-chlorophenoxy)ethyl]-o-phenylenediamine Hydrochloride] |  | >100 |  |  |
| CCCCCCS(=O)(=O)N(CCN(C)C)c1ccccc1NCCOc1ccc(Cl)cc1.Cl [Example 32, N-[2-(Dimethylamino)ethyl]-N-(1-hexanesulfonyl)-N′-[2-(4-chlorophenoxy)ethyl]-o-phenylenediamine Hydrochloride] | 88 | >100 |  |  |
| COc1ccc(S(=O)(=O)N(CCN(C)C)c2ccccc2NCCOc2ccc(Cl)cc2)cc1.Cl [Example 40, N-[2-(Dimethylamino)ethyl]-N-(4-methoxybenzenesulfonyl)-N′-[2-(4-chlorophenoxy)ethyl]-o-phenylenediamine Hydrochloride] | 88 | >100 |  |  |
| CN(C)CCN(c1ccccc1NCCOc1ccc(Cl)cc1)S(=O)(=O)c1ccc(F)cc1.Cl [Example 42, N-[2-(Dimethylamino)ethyl]-N-(4-fluorobenzenesulfonyl)-N′-[2-(4-chlorophenoxy)ethyl]-o-phenylenediamine Hydrochloride] | 91 | >100 |  |  |
| CN(C)CCN(c1ccccc1NCCOc1ccccc1)S(=O)(=O)c1ccc(Cl)cc1.Cl [Example 50, N-[2-(Dimethylamino)ethyl]-N-(4-chlorobenzenesulfonyl)-N′-(2-phenoxyethyl)-o-phenylenediamine Hydrochloride] | 81 | >100 |  |  |
| CN(C)CCN(c1ccccc1NCCOc1ccc(Cl)cc1)S(=O)(=O)c1ccccc1Cl.Cl [Example 51, N-[2-(Dimethylamino)ethyl]-N-(2-chlorobenzenesulfonyl)-N′-[2-(4-chlorophenoxy)ethyl]-o-phenylenediamine Hydrochloride] | 83 | 84.6 |  |  |
| CN(C)CCN(c1cccc(NCCOc2ccc(Cl)cc2)c1)S(=O)(=O)c1ccc(Cl)cc1.Cl [Example 55, N-[2-(Dimethylamino)ethyl]-N-(4-chlorobenzenesulfonyl)-N′-[2-(4-chlorophenoxy)ethyl]-m-phenylenediamine Hydrochloride] | 88 |  |  |  |
| CN(C)CCN(c1ccc(NCCOc2ccc(Cl)cc2)cc1)S(=O)(=O)c1ccccc1Cl.Cl [Example 56, N-[2-(Dimethylamino)ethyl]-N-(2-chlorobenzenesulfonyl)-N′-[2-(4-chlorophenoxy)ethyl]-p-phenylenediamine Hydrochloride] | 88 |  |  |  |
| CN(C)CCN(c1ccccc1NCCOc1ccc(Cl)cc1)S(=O)(=O)c1cccc2cnccc12.Cl [Example 57, N-[2-(Dimethylamino)ethyl]-N-(5-isoquinolinesulfonyl)-N′-[2-(4-chlorophenoxy)ethyl]-o-phenylenediamine Hydrochloride] |  | >100 |  |  |
| CN(C)CCN(c1ccccc1NCCOc1cccc(Cl)c1)S(=O)(=O)c1ccc(Cl)cc1.Cl [Example 58, N-[2-(Dimethylamino)ethyl]-N-(4-chlorobenzenesulfonyl)-N′-[2-(3-chlorophenoxy)ethyl]-o-phenylenediamine Hydrochloride] | 88 | 71.2 |  |  |
| CN(C)CCN(c1ccccc1N(C)CCOc1ccc(Cl)cc1)S(=O)(=O)c1ccc(Cl)cc1.Cl [Example 69] | 99 |  |  |  |
| CN(C)CCN(c1ccccc1N(CCOc1ccc(Cl)cc1)Cc1ccccc1)S(=O)(=O)c1ccc(Cl)cc1.Cl [Example 71, N-[2-(Dimethylamino)ethyl]-N-(4-chlorobenzenesulfonyl)-N′-benzyl-N′-[2-(4-chlorophenoxy)ethyl]-o-phenylenediamine Hydrochloride] | 99 |  |  |  |
| NCCN(c1cccnc1NCCNc1ccc(Cl)cc1)S(=O)(=O)c1ccc(Cl)cc1 [Example 86, 3-[N-(4-Chlorobenzenesulfonyl)-N-(2-aminoethyl)]amino-2-[2-(4-chlorophenyl)aminoethyl]aminopyridine] |  |  | 1.1 | Suppression [1]: 79% |
| CN(C)CCN(c1ccccc1N1CCOCC1)S(=O)(=O)c1ccc(Cl)cc1.Cl [Example 128, 2-(4-Morpholino)-1-[N-[2-(dimethylamino)ethyl]-N-(4-chlorobenzenesulfonyl)]aminobenzene Hydrochloride Salt] |  | >100 |  |  |
| CN(C)CCN(c1ccccc1N1CCNCC1)S(=O)(=O)c1ccc(Cl)cc1.Cl [Example 129, 2-(1-Piperazino)-1-[N-[2-(dimethylamino)ethyl]-N-(4-chlorobenzenesulfonyl)]aminobenzene Hydrochloride Salt] |  | >100 |  |  |
| CN(C)CCN(c1ccccc1N1CCN(c2ccc(Cl)cc2)CC1)S(=O)(=O)c1ccc(Cl)cc1 [Example 132, 2-[4-(4-Chlorophenyl)-1-piperazino]-1-[N-[2-(dimethylamino)ethyl]-N-(4-chlorobenzenesulfonyl)]aminobenzene] | 88 |  |  | MIC (Helicobacter pylori): 3.13 to 12.5 µg/mL |
| CN(C)CCN(c1ccccc1N1CCCN(c2ccc(Cl)cc2)CC1)S(=O)(=O)c1ccc(Cl)cc1.Cl [Example 135, 2-[4-(4-Chlorophenyl)-1-homopiperazino]-1-[N-[2-(dimethylamino)ethyl]-N-(4-chlorobenzenesulfonyl)]aminobenzene.HCl] | 89 |  |  |  |
| CN(C)CCN(c1ccccc1Sc1ccc(Cl)cc1)S(=O)(=O)c1ccc(Cl)cc1.Cl [Example 142, 2-(4-Chlorophenylthio)-N-(4-chlorobenzenesulfonyl)-N-(2-dimethylaminoethyl)aniline.HCl] | 98 |  |  |  |
| NCCOCCN(c1ccccc1Oc1ccc(Cl)cc1)S(=O)(=O)c1ccc(Cl)cc1 [Example 144, 1-[N-[2-(2-Aminoethoxy)ethyl]-N-(4-chlorobenzenesulfonyl)]-2-(4-chlorophenoxy)aniline] |  |  | 11.4 | MIC (Helicobacter pylori; [3]): 25 to 50 µg/mL (≈ 51.9 to 104 µM) |
| CN(C)CCN(c1ccccc1Oc1ccc(Cl)cc1)S(=O)(=O)c1ccc(Cl)cc1.Cl [Example 145, 1-[N-[2-(Dimethylamino)ethyl]-N-(4-chlorobenzenesulfonyl)]-2-(4-chlorophenoxy)aniline.HCl] |  | >100 |  |  |
